System: subjects with advanced malignancies
Experiment: Phase 1 dose escalation: toxicity, safety and tolerability (DLT, MAD, RP2D, AEs)
Experimental: Subjects continued on treatment until there was disease progression, unacceptable toxicity, or the subject withdrew consent. The trial employed an accelerated titration design [16] starting at a dose of 0.33 mg/m^2 (one-sixth of the highest nontoxic dose in dogs).
the dose was doubled in sequential subjects until a DLT was observed or a subject experienced grade 2 toxicity [16]. In the case of an observed grade 2 toxicity, a second subject was enrolled at the same dose level. If the second subject also experienced a grade 2 toxicity, 2 additional subjects were accrued at that dose level for a total of 4 subjects. […] Each subject was allocated to only a single dose level of drug. Dose delay or modification was permitted based on laboratory and clinical assessment performed on the day of treatment.
Dose-limiting toxicities were determined during the first cycle for each dose level. A DLT was defined as any grade 3 or 4 hematologic toxicity lasting for at least 1 week, or as any grade 3 or 4 nonhematologic toxicity. […] Normal alkaline phosphatase level (< grade 1) at screening that rose to greater than or equal to grade 3; grade 1 or 2 alkaline phosphatase level at screening that rose to grade 4; grade 1 or 2 aspartate aminotransferase (AST) and/or alanine aminotransferase (ALT) levels at screening that doubled from baseline to become greater than or equal to grade 3; and any other abnormal nonhematology laboratory value greater than or equal to grade 3 that required medical intervention to treat, led to hospitalization, or persisted for at least 1 week were also considered DLTs.
Adverse events were graded based on the National Cancer Institute Common Terminology Criteria for Adverse Events (NCI CTCAE version 3.0) and were coded using the Medical Dictionary for Regulatory Activities (MedDRA version 13.0).

## CCc1cnn2c(NCc3ccc[n+]([O-])c3)cc(N3CCCC[C@H]3CCO)nc12 [dinaciclib]
10 mg/m^2 (n = 3), Grade 3–4
  TEAE: Hyperglycemia: 1 (33) n (%)
  TEAE: Hyperuricemia: 0 n (%)
  TEAE: Hypokalemia: 0 n (%)
  TEAE: Hypophosphatemia: 0 n (%)
  TEAE: Increased ALP: 0 n (%)
  TEAE: Increased ALT: 0 n (%)
  TEAE: Increased AST: 0 n (%)
  TEAE: Nausea: 0 n (%)
  TEAE: Neutropenia: 1 (33) n (%)
  TEAE: Peripheral edema: 0 n (%)
  TEAE: Pyrexia: 0 n (%)
  TEAE: Subjects with any AE: 1 (33) n (%)
  TEAE: Urinary tract infection: 0 n (%)
  TEAE: Vomiting: 0 n (%)
  TEAE: Weight decreased: 0 n (%)
12 mg/m^2 (n = 11), All grades
  TEAE: Abdominal distension: 1 (9) n (%)
  TEAE: Abdominal pain: 0 n (%)
  TEAE: Anemia: 6 (55) n (%)
  TEAE: Asthenia: 4 (36) n (%)
  TEAE: Back pain: 1 (9) n (%)
  TEAE: Constipation: 2 (18) n (%)
  TEAE: Cough: 2 (18) n (%)
  TEAE: Decreased appetite: 2 (18) n (%)
  TEAE: Dehydration: 0 n (%)
  TEAE: Diarrhea: 1 (9) n (%)
  TEAE: Dizziness: 1 (9) n (%)
  TEAE: Dyspnea: 0 n (%)
  TEAE: Fatigue: 4 (36) n (%)
  TEAE: Flatulence: 1 (9) n (%)
  TEAE: Hyperbilirubinemia: 3 (27) n (%)
  TEAE: Hyperglycemia: 4 (36) n (%)
  TEAE: Hyperuricemia: 3 (27) n (%)
  TEAE: Hypokalemia: 2 (18) n (%)
  TEAE: Hypophosphatemia: 2 (18) n (%)
  TEAE: Increased ALP: 4 (36) n (%)
  TEAE: Increased ALT: 3 (27) n (%)
  TEAE: Increased AST: 4 (36) n (%)
  TEAE: Nausea: 3 (27) n (%)
  TEAE: Neutropenia: 4 (36) n (%)
  TEAE: Peripheral edema: 3 (27) n (%)
  TEAE: Pyrexia: 4 (36) n (%)
  TEAE: Subjects with any AE: 11 (100) n (%)
  TEAE: Urinary tract infection: 4 (36) n (%)
  TEAE: Vomiting: 3 (27) n (%)
  TEAE: Weight decreased: 0 n (%)
12 mg/m^2 (n = 11), Grade 3–4
  TEAE: Abdominal distension: 0 n (%)
  TEAE: Abdominal pain: 0 n (%)
  TEAE: Anemia: 1 (9) n (%)
  TEAE: Asthenia: 0 n (%)
  TEAE: Back pain: 0 n (%)
  TEAE: Constipation: 0 n (%)
  TEAE: Cough: 0 n (%)
  TEAE: Decreased appetite: 0 n (%)
  TEAE: Dehydration: 0 n (%)
  TEAE: Diarrhea: 0 n (%)
  TEAE: Dizziness: 0 n (%)
  TEAE: Dyspnea: 0 n (%)
  TEAE: Fatigue: 0 n (%)
  TEAE: Flatulence: 0 n (%)
  TEAE: Hyperbilirubinemia: 1(9) n (%)
  TEAE: Hyperglycemia: 2 (18) n (%)
  TEAE: Hyperuricemia: 2 (18) n (%)
  TEAE: Hypokalemia: 1 (9) n (%)
  TEAE: Hypophosphatemia: 2 (18) n (%)
  TEAE: Increased ALP: 0 n (%)
  TEAE: Increased ALT: 0 n (%)
  TEAE: Increased AST: 1 (9) n (%)
  TEAE: Nausea: 0 n (%)
  TEAE: Neutropenia: 2 (18) n (%)
  TEAE: Peripheral edema: 0 n (%)
  TEAE: Pyrexia: 0 n (%)
  TEAE: Subjects with any AE: 8 (73) n (%)
  TEAE: Urinary tract infection: 0 n (%)
  TEAE: Vomiting: 0 n (%)
  TEAE: Weight decreased: 0 n (%)
14 mg/m^2 (n = 5), All grades
  TEAE: Abdominal distension: 0 n (%)
  TEAE: Abdominal pain: 0 n (%)
  TEAE: Anemia: 2 (40) n (%)
  TEAE: Asthenia: 1 (20) n (%)
  TEAE: Back pain: 1 (20) n (%)
  TEAE: Constipation: 1 (20) n (%)
  TEAE: Cough: 0 n (%)
  TEAE: Decreased appetite: 1 (20) n (%)
  TEAE: Dehydration: 3 (60) n (%)
  TEAE: Diarrhea: 0 n (%)
  TEAE: Dizziness: 1 (20) n (%)
  TEAE: Dyspnea: 1 (20) n (%)
  TEAE: Fatigue: 0 n (%)
  TEAE: Flatulence: 0 n (%)
  TEAE: Hyperbilirubinemia: 2 (40) n (%)
  TEAE: Hyperglycemia: 1 (20) n (%)
  TEAE: Hyperuricemia: 1 (20) n (%)
  TEAE: Hypokalemia: 0 n (%)
  TEAE: Hypophosphatemia: 0 n (%)
  TEAE: Increased ALP: 1 (20) n (%)
  TEAE: Increased ALT: 0 n (%)
  TEAE: Increased AST: 1 (20) n (%)
  TEAE: Nausea: 4 (80) n (%)
  TEAE: Neutropenia: 3 (60) n (%)
  TEAE: Peripheral edema: 0 n (%)
  TEAE: Pyrexia: 0 n (%)
  TEAE: Subjects with any AE: 5 (100) n (%)
  TEAE: Urinary tract infection: 0 n (%)
  TEAE: Vomiting: 2 (40) n (%)
  TEAE: Weight decreased: 0 n (%)
